Measured values as given in doi:10.1101/2024.07.10.602890, “H105A peptide eye drops promote photoreceptor survival in murine and human models of retinal degeneration” (bioRxiv, 2024).
Ends that are not written are not given here.

Test system: Rho^P23H/+ mice
Assay: H105A eye drops in Rho P23H/+ mice: BAX/BCL2 immunofluorescence, ONL and OS thickness
Format: in vivo, mouse
Procedure: Fig. 6: Effects of eye drops containing H105A peptide in the photoreceptors of RhoP23H/+ mice (A) Scheme of experimental design. Daily peptide eye drops (5 μl of 1mg/ml peptide) were applied to mice starting at P14 until P19 when immunofluorescence of retinal cross sections was performed. The contralateral control eyes were treated with vehicle HBSS. (B) Immunostaining was performed with antibodies against BAX or BCL2 (green), and DAPI (blue). Histograms show quantification of immunofluorescence intensity for BAX and BCL2 markers. […] Each individual data point represents the average of one retina, with statistical significance determined by unpaired t-test (****p < 0.00001). Scale bar = 10 μm. […] (D) Quantification of ONL thickness represented in the spider graph confirmed a significant preservation in the ventral retina. […] Presented as average ± SEM, with statistics performed using One-way ANOVA * p<0.05
Eyes from Rho^P23H/+ mice eyes were enucleated and fixed in Davidson’s fix (Formaldehyde 8% (Merck, cat. F8775); Ethanol 32% (Carlo Erba, cat. 414608); Acetic Acid 10% (Merck, cat. 695092) over-night. After embedding in paraffin, 14 μm sections were collected. For TUNEL, sections were treated with 0.1 M Citrate Buffer pH 6 (Tri-sodium Citrate 10 mM (Carlo Erba, cat. 368007); Citric Acid 0.2 mM (Merck, cat: 251275) in microwave for 5 minutes, then labeling was performed for one hour at 37°C using a In Situ Cell Death Detection Kit (Merck, cat. 12156792910). Rod photoreceptors were labeled with anti-RHO 1D4 antibody followed by Alexa Fluor 568 anti-mouse secondary antibody (see Table S3). Cone photoreceptors were labeled with peanut agglutinin (PNA, Vector Laboratories, cat. FL-1071). GFP localization in control transduced retinas was identified with specific anti-GFP antibodies and Alexa Fluor 488 anti-mouse secondary antibody (see Table S3). For nuclear staining, 0.1 μg/mL DAPI was used. Slides were mounted with Mowiol 4–88 (Merck) and images acquired with a Zeiss Axio Imager A2 fluorescence microscope. To count TUNEL positive cells the RETINA Analysis Tool kit for ImageJ was used ([52]).
To generate spider plots, the ONL thickness was measured from images acquired with light microscopy of the retina sections stained with H&E or images of retina sections stained with DAPI with a dorsal-ventral orientation. The ONL thickness in the entire retina sections was measured at 5 different positions from both sides of the optic nerve (ON) using ImageJ, as described before ([28]). Alternatively, for DAPI stained images, a customed macro implemented in ImageJ was used to select only the ONL.

[1] = daily eye drops 5 μl of 1 mg/ml P14 to P19, vs contralateral HBSS

Sequence: QRTESIIARALYYDLIS [H105A]
- BAX level (immunofluorescence) [1]: attenuated the levels of BAX
- BCL2 level (immunofluorescence) [1]: increased BCL2
- outer segments (OS) of rod photoreceptors labeled by rhodopsin (daily eye drops P14 to P19, P19, n = 9): significantly preserved
- ONL thickness (daily eye drops P14 to P19, assessed at P19): significant preservation in the ventral part of the retina
